Data reported in US7700615B2, “Cell migration inhibiting compositions and methods and compositions for treating cancer” (Avolix Pharmaceuticals, Inc., priority 2002, dated 2010).

Experiments:
[1] = tested on: MDA-MB-231 breast cancer cells; assay: scid mouse human breast tumor model (tumor growth, survival); format: in vivo, scid mice
Description: Measuring the synergy of a combination of a chemical and a chemotherapeutic agent may also be performed by evaluating the growth inhibitory effects of a chemotherapeutic agent and a cell migration inhibitor in a severe combined immunodeficient (scid) mouse human tumor model. Such measurements include screening mice for immunoglobulin (Ig) production by an enzyme-linked immunosorbent assay (ELISA). A number of mice are injected with cancer cells in saline using a subcutaneous (SC) injection. Mice with established tumors are selected and stratified according to groups including: a control group, a group treated with a chemotherapeutic agent alone, a group treated with a cell migration inhibitor alone, and one or more groups treated with various combinations of the chemotherapeutic agent and the cell migration inhibitor. The groups designated to be treated with at least the chemotherapeutic agent are injected with the chemotherapeutic agent or the chemotherapeutic agent diluent by intraperitoneal (IP, within abdominal cavity) injection on the first day of treatment. […] Tumor growth may be measured about twice a week throughout the experiment, and the tumor volume may be estimated using the following formula: [(width)^2×length]/2. […]
The scid mouse human breast tumor model was used to evaluated cancer cells of the cell line MDA-MB-231 treated with various compositions. […]

[2] = tested on: breast cancer cell line MDA-MB-231; assay: Cell migration rate dose response, breast cancer cells; format: cell-based, human; details: concentration of 2.00 μM
Description: (§1) The guided cell sedimentation apparatus may be used to deposit cells onto a substrate at predetermined locations. A manifold and a substrate as described above may be stored in autoclave bags and steam autoclaved for about 1 hour to sterilize the manifold. The manifold may then be stored at about 4° C. until testing is to be performed. FIG. 3 illustrates a top schematic view of substrate 14. Prior to deposition, the surface of substrate 14 onto which the cells will be deposited is treated according to the experiment to be performed. For example, about 20 μl of a surface coating may be added to each well and incubated for about 1 hour at about 37° C. Just prior to deposition of the cells, Teflon-defined wells 24 on the substrate are hydrated in a culture media appropriate for the cells under study. Approximately 50 μl of culture media is deposited onto each well. […]
(§2) Cell migration may be monitored over time by monitoring the location of individual cells over time or measuring the radius of a circle surrounding the cells over time. […] The peripheral cells are easily detected because the cells can be deposited as a confluent monolayer within a predetermined area. […] Alternatively, designations such as numbers can be assigned to individual cells such that cells may be counted or characterized within the deposited sample of cells. […]

[3] = tested on: melanoma cancer cell line WM1791C; assay: Cell migration rate dose response, melanoma cancer cells; format: cell-based; details: concentration of 0.025 μM
Description: as §1, §2

[4] = tested on: lung cancer cell line MV522; assay: Cell migration inhibition of lung cancer cells; format: cell-based; details: compared with untreated control sample
Description: as §1, §2

normal fibroblasts = assay: Cell migration of normal fibroblasts; format: cell-based; details: compared with control sample of untreated cells
Description: (§3) The guided cell sedimentation apparatus may be used to deposit cells onto a substrate at predetermined locations. A manifold and a substrate as described above may be stored in autoclave bags and steam autoclaved for about 1 hour to sterilize the manifold. The manifold may then be stored at about 4° C. until testing is to be performed. FIG. 3 illustrates a top schematic view of substrate 14. Prior to deposition, the surface of substrate 14 onto which the cells will be deposited is treated according to the experiment to be performed. For example, about 20 μl of a surface coating may be added to each well and incubated for about 1 hour at about 37° C. Just prior to deposition of the cells, Teflon-defined wells 24 on the substrate are hydrated in a culture media appropriate for the cells under study. Approximately 50 μl of culture media is deposited onto each well. […] A small aliquot of the culture media (i.e., about 1 μl) is aspirated from each channel of the manifold to eliminate air bubbles within the channels.
The cells are harvested from a culture according to any method known in the art. The cell concentration is adjusted to about 2000 cells/μl. An appropriate cell concentration may vary depending on the cell type. The cells are deposited into each channel in a volume of about 1 μl. The number of cells deposited onto the substrate varies depending upon the physical characteristics of the cells under study. For example, about 500 to about 3000 cells are deposited in each location. The manifold, substrate, and cells should stand undisturbed for a period of time of, for example, about 30 minutes. During the time, the cells will sediment. Sedimentation is generally defined as a process in which gravity causes heavier objects in a suspension to settle to the lowest part of the system. As used herein, sedimentation refers to the process in which gravity causes cells to settle through a standing column of culture media that fills the channels in the manifold. Forces greater than gravity should be avoided to prevent damage of the cells.
The manifold, substrate, and cells are transferred to a controlled temperature and atmosphere tissue culture incubator for several hours to overnight to allow the cells to attach to the surface of the substrate. Appropriate conditions for the incubator are about 37° C., about […] (CO2), and humidified air. The cells sediment onto a defined location at the bottom of the channel. Therefore, when the manifold is removed from the substrate, the cells are deposited as discs 26 of cells at predetermined locations on the substrate, as shown in FIG. 3. Such sedimentation of cells may further include any other steps of the methods as described by Berens. After the cells are attached and the manifold has been removed, the cells in each well may be re-fed with an appropriate solution.
as §2

[5] = tested on: glioma cancer cell line SF 767; assay: Cell migration rate dose response, glioma cancer cells; format: cell-based; details: concentration of 2.00 μM
Description: as §1, §2

[6] = tested on: pancreatic cancer cell line MiaPaCa-2; assay: Cell migration inhibition of pancreatic cancer cells; format: cell-based; details: compared with untreated control sample
Description: as §1, §2

HUVEC cells = assay: Angiogenesis inhibition: cell migration of HUVEC cells; format: cell-based, Human; details: compared with untreated control sample
Description: as §3
The cells are harvested from a culture according to any method known in the art. The cell concentration is adjusted to about 2000 cells/μl. An appropriate cell concentration may vary depending on the cell type. The cells are deposited into each channel in a volume of about 1 μl. The number of cells deposited onto the substrate varies depending upon the physical characteristics of the cells under study. For example, about 500 to about 3000 cells are deposited in each location. The manifold, substrate, and cells should stand undisturbed for a period of time of, for example, about 30 minutes. […]
as §2

Cc1ccc(C(=O)O)cc1[N+](=O)[O-] [4-methyl-3-nitro-benzoic acid]
% Survival after 100 days ([1]; 4-methyl-3-nitro-benzoic acid alone (30 mg/kg, IP qod×5)): 0%
cell migration rate [2]: about 75 μm/day
cell migration rate [3]: less than 50 μM/day
cell migration rate [4]: markedly reduced migration
cell migration rate of normal fibroblasts (normal fibroblasts): essentially no effect

CCCC1CCC(C2CCC(C(=O)O)CC2)CC1 (stereo not drawn) [4′-propyl-bicyclohexyl-4-carboxylic acid]
cell migration rate [5]: about 50 μm/day
cell migration rate of normal fibroblasts (normal fibroblasts): essentially no effect

COc1ccc(C2C(C(=O)c3ccc(Cl)cc3)N3c4ccccc4C=CC3C2(C#N)C#N)cc1OC (stereo not drawn) [NS20494, 1-(4-chloro-benzoyl)-2-(3,4-dimethoxy-phenyl)-1,2-dihydro-3aH-pyrrolo[1,2-a]quinoline-3,3-dicarbonitrile]
cell migration rate [6]: markedly reduced migration
cell migration rate (HUVEC cells): markedly reduced migration
cell migration rate of normal fibroblasts (normal fibroblasts): essentially no effect

CC(=O)O[C@H]1C(=O)[C@@]2(C)[C@H]([C@H](OC(=O)c3ccccc3)[C@]3(O)C[C@H](OC(=O)[C@H](O)[C@@H](NC(=O)c4ccccc4)c4ccccc4)C(C)=C1C3(C)C)[C@]1(OC(C)=O)CO[C@@H]1C[C@@H]2O [Taxol, paclitaxel, reference compound]
% Survival after 100 days ([1]; Taxol alone (10 mg/kg, IP qod×5)): 0%

N#Cc1c(NC(=O)c2cccc(I)c2)sc2c1CCCC2 [compound 301, N-(3-cyano-4,5,6,7-tetrahydro-benzo[b]thiophen-2-yl)-3-iodo-benzamide]
cell migration rate (HUVEC cells): markedly reduced migration
cell migration rate of normal fibroblasts (normal fibroblasts): essentially no effect

C1=C(c2ccc3c(c2)OCCO3)NN=C(Nc2ccccc2)S1 [compound 302, [5-(2,3-dihydro-benzo[1,4]dioxin-6-yl)-4H-[1,3,4]thiadiazin-2-yl]-phenyl-amine]
cell migration rate (HUVEC cells): markedly reduced migration
cell migration rate of normal fibroblasts (normal fibroblasts): essentially no effect
